± gives the uncertainty stated by the source.
Assay: xn = mol fraction of the nth substance listed

CCCC[N+](CCCC)(CCCC)Cc1ccccc1.[Cl-] + CC(C)[C@H](N)C(=O)O + O
101 kPa
Settings | electrical conductivity, 298.15 K [S/m] | electrical conductivity, 303.15 K [S/m] | electrical conductivity, 308.15 K [S/m] | viscosity, 298.15 K [mPa·s] | viscosity, 303.15 K [mPa·s] | viscosity, 308.15 K [mPa·s]
x2 = 1.802e-05, x1 = 1.802e-05 | 0.0145 ± 0.0015 | 0.0163 ± 0.0016 | 0.0169 ± 0.0017 | – | 0.825 ± 0.032 | 0.704 ± 0.032
x2 = 1.804e-05, x1 = 5.406e-05 | 0.0303 ± 0.003 | 0.0313 ± 0.0031 | 0.0331 ± 0.0033 | – | – | –
x2 = 1.805e-05, x1 = 9.009e-05 | 0.0341 ± 0.0034 | 0.0371 ± 0.0037 | 0.0391 ± 0.0039 | – | – | –
x2 = 4.506e-05, x1 = 1.802e-05 | 0.0166 ± 0.0017 | 0.0172 ± 0.0017 | 0.0185 ± 0.0019 | – | 0.838 ± 0.032 | 0.719 ± 0.032
x2 = 4.509e-05, x1 = 5.405e-05 | 0.0312 ± 0.0031 | 0.0322 ± 0.0032 | 0.0342 ± 0.0034 | – | – | –
x2 = 4.511e-05, x1 = 9.009e-05 | 0.0353 ± 0.0035 | 0.0383 ± 0.0038 | 0.0406 ± 0.0041 | 1.296 ± 0.035 | – | –
x2 = 7.21e-05, x1 = 1.802e-05 | 0.0185 ± 0.0019 | 0.0193 ± 0.0019 | 0.0209 ± 0.0021 | – | 0.851 ± 0.032 | 0.733 ± 0.032
x2 = 7.214e-05, x1 = 5.405e-05 | 0.0325 ± 0.0033 | 0.0335 ± 0.0034 | 0.0356 ± 0.0036 | 1.273 ± 0.035 | – | –
x2 = 7.218e-05, x1 = 9.009e-05 | 0.0365 ± 0.0037 | 0.0394 ± 0.0039 | 0.0421 ± 0.0042 | – | – | –
x2 = 9.913e-05, x1 = 1.802e-05 | 0.0205 ± 0.0021 | 0.0215 ± 0.0022 | 0.0234 ± 0.0023 | – | 0.864 ± 0.032 | 0.748 ± 0.032
x2 = 9.919e-05, x1 = 5.405e-05 | 0.0338 ± 0.0034 | 0.0346 ± 0.0035 | 0.0363 ± 0.0036 | 1.288 ± 0.035 | – | –
x2 = 9.925e-05, x1 = 9.008e-05 | 0.0379 ± 0.0038 | 0.0409 ± 0.0041 | 0.0435 ± 0.0044 | – | 1.165 ± 0.034 | –
x2 = 0.0001262, x1 = 1.802e-05 | 0.0222 ± 0.0022 | 0.0236 ± 0.0024 | 0.0249 ± 0.0025 | – | 0.878 ± 0.032 | 0.763 ± 0.032
x2 = 0.0001262, x1 = 5.405e-05 | 0.0347 ± 0.0035 | 0.0357 ± 0.0036 | 0.0377 ± 0.0038 | – | – | –
x2 = 0.0001263, x1 = 9.008e-05 | 0.0391 ± 0.0039 | 0.0421 ± 0.0042 | 0.0447 ± 0.0045 | – | – | –
x2 = 0.0001532, x1 = 1.802e-05 | 0.0235 ± 0.0024 | 0.0251 ± 0.0025 | 0.0266 ± 0.0027 | – | – | 0.779 ± 0.032
x2 = 0.0001533, x1 = 5.405e-05 | 0.0356 ± 0.0036 | 0.0368 ± 0.0037 | 0.0389 ± 0.0039 | – | – | –
x2 = 0.0001534, x1 = 9.008e-05 | 0.0407 ± 0.0041 | 0.0435 ± 0.0044 | 0.0463 ± 0.0046 | – | – | –

CCO + CCCCCCCC(=O)[O-].c1c[nH+]c[nH]1
101.3 kPa, x1 = 1
Settings | viscosity [mPa·s]
293.15 K | 1.21 ± 0.04
303.15 K | 1 ± 0.032

CCO + CCCCCCCCCCCCCCCC[N+](C)(C)C.[Br-] + O
Settings | electrical conductivity [S/m]
298.2 K, 101.3 kPa, x2 = 0, x1 = 0.05064 | 0.00019 ± 0.0002

CCCCCC[n+]1ccn(C)c1C.O=S(=O)([N-]S(=O)(=O)C(F)(F)F)C(F)(F)F + CCCCCCCCCCCCCC[P+](CCCCCC)(CCCCCC)CCCCCC.O=S(=O)([N-]S(=O)(=O)C(F)(F)F)C(F)(F)F
Settings | viscosity [mPa·s]
278.15 K, 100 kPa, x1 = 0.6 | 930 ± 120

CCCC[N+](CCCC)(CCCC)CCCC.O=[N+]([O-])[O-] + CCCCCCCCCCCCOS(=O)(=O)[O-].[Na+] + O
viscosity [mPa·s], 100 kPa
Settings | x2 = 1.81e-06, x1 = 0.0001802 | x2 = 3.61e-06, x1 = 0.0001802 | x2 = 5.42e-06, x1 = 0.0001802 | x2 = 7.23e-06, x1 = 0.0001802 | x2 = 9.04e-06, x1 = 0.0001802 | x2 = 1.084e-05, x1 = 0.0001802 | x2 = 1.265e-05, x1 = 0.0001802 | x2 = 1.446e-05, x1 = 0.0001802 | x2 = 1.626e-05, x1 = 0.0001802 | x2 = 1.807e-05, x1 = 0.0001802
293.15 K | 1.012 ± 0.029 | 1.013 ± 0.029 | 1.014 ± 0.029 | 1.014 ± 0.029 | 1.015 ± 0.029 | 1.016 ± 0.029 | 1.017 ± 0.029 | 1.018 ± 0.029 | 1.018 ± 0.029 | 1.018 ± 0.029
298.15 K | 0.898 ± 0.028 | 0.9 ± 0.028 | 0.901 ± 0.028 | 0.902 ± 0.028 | 0.902 ± 0.028 | 0.903 ± 0.028 | 0.903 ± 0.028 | 0.903 ± 0.028 | 0.904 ± 0.028 | 0.904 ± 0.028
303.15 K | 0.797 ± 0.028 | 0.798 ± 0.028 | 0.798 ± 0.028 | 0.8 ± 0.028 | 0.8 ± 0.028 | 0.801 ± 0.028 | 0.801 ± 0.028 | 0.801 ± 0.028 | 0.801 ± 0.028 | 0.801 ± 0.028
308.15 K | 0.709 ± 0.027 | 0.71 ± 0.027 | 0.712 ± 0.027 | 0.713 ± 0.027 | 0.713 ± 0.027 | 0.713 ± 0.027 | 0.713 ± 0.027 | 0.714 ± 0.027 | 0.714 ± 0.027 | 0.714 ± 0.027
313.15 K | 0.643 ± 0.027 | 0.644 ± 0.027 | 0.644 ± 0.027 | 0.644 ± 0.027 | 0.645 ± 0.027 | 0.645 ± 0.027 | 0.645 ± 0.027 | 0.645 ± 0.027 | 0.645 ± 0.027 | 0.646 ± 0.027
318.15 K | 0.597 ± 0.027 | 0.597 ± 0.027 | 0.597 ± 0.027 | 0.598 ± 0.027 | 0.598 ± 0.027 | 0.598 ± 0.027 | 0.598 ± 0.027 | 0.598 ± 0.027 | 0.599 ± 0.027 | 0.599 ± 0.027

Oc1cccc(O)c1O + CCCCCCCCCCCC[N+](C)(C)C.[Br-]
101.3 kPa, x2 = 0.333
Settings | electrical conductivity [S/m] | viscosity [mPa·s]
293.15 K | 0.00471 ± 0.00017 | –
298.15 K | 0.00821 ± 0.00025 | –
333.15 K | 0.14 ± 0.0031 | 400 ± 23

CCCC[N+](CCCC)(CCCC)CCCC.O=[N+]([O-])[O-] + CCCCCCCCCCCC[N+](C)(C)C.[Br-] + O
viscosity [mPa·s], 100 kPa
Settings | x2 = 5.421e-05, x1 = 0.0001802 | x2 = 0.0001084, x1 = 0.0001801 | x2 = 0.0001626, x1 = 0.0001801 | x2 = 0.0002168, x1 = 0.0001801 | x2 = 0.000271, x1 = 0.0001801 | x2 = 0.0003252, x1 = 0.0001801 | x2 = 0.0003794, x1 = 0.0001801 | x2 = 0.0004335, x1 = 0.0001801 | x2 = 0.0004877, x1 = 0.0001801 | x2 = 0.0005418, x1 = 0.0001801
293.15 K | 1.042 ± 0.029 | 1.043 ± 0.029 | 1.045 ± 0.029 | 1.047 ± 0.029 | 1.048 ± 0.029 | 1.048 ± 0.029 | 1.049 ± 0.029 | 1.049 ± 0.029 | 1.049 ± 0.029 | 1.049 ± 0.029
298.15 K | 0.924 ± 0.029 | 0.926 ± 0.029 | 0.927 ± 0.029 | 0.928 ± 0.029 | 0.928 ± 0.029 | 0.929 ± 0.029 | 0.929 ± 0.029 | 0.929 ± 0.029 | 0.93 ± 0.029 | 0.93 ± 0.029
303.15 K | 0.821 ± 0.028 | 0.822 ± 0.028 | 0.822 ± 0.028 | 0.824 ± 0.028 | 0.825 ± 0.028 | 0.825 ± 0.028 | 0.825 ± 0.028 | 0.825 ± 0.028 | 0.826 ± 0.028 | 0.826 ± 0.028
308.15 K | 0.731 ± 0.028 | 0.732 ± 0.028 | 0.735 ± 0.028 | 0.735 ± 0.028 | 0.735 ± 0.028 | 0.736 ± 0.028 | 0.736 ± 0.028 | 0.736 ± 0.028 | 0.737 ± 0.028 | 0.737 ± 0.028
313.15 K | 0.664 ± 0.028 | 0.664 ± 0.027 | 0.665 ± 0.027 | 0.665 ± 0.027 | 0.665 ± 0.027 | 0.666 ± 0.027 | 0.666 ± 0.027 | 0.666 ± 0.027 | 0.666 ± 0.027 | 0.667 ± 0.028
318.15 K | 0.617 ± 0.027 | 0.617 ± 0.027 | 0.617 ± 0.027 | 0.618 ± 0.027 | 0.618 ± 0.027 | 0.618 ± 0.027 | 0.618 ± 0.027 | 0.618 ± 0.027 | 0.619 ± 0.027 | 0.619 ± 0.027

— the CheMixHub ionic liquid set
